Results reported in patent US20100120747A1, “COMBINATION OF A CHOL[…] AND A COMPOUND WITH 5-HT6 RECEPTOR AFFINITY” (priority 2006, published 2010).
Counter-ions that a name gives are not always drawn.

Tested on: adult male Lister hooded rats
Experiment: Novel object discrimination (NOD) test, 4 h inter-trial interval
Type: in vivo, rat
Details: FIG. 1; for effect in the NOD test: 4 h ITI, each amount given by itself or both amounts combined
Protocol: II) Behavioural Assessment of Cognitive Effects of Compounds with 5-HT6 Receptor Affinity: Novel Object Discrimination (NOD)
Two separate groups of 12 adult male Lister hooded rats are tested in the NOD paradigm using 4 h inter-trial interval (ITI) delay between the familiarisation and choice trials which should ensure impaired discrimination and permit the pro-cognitive effects of the compounds to be evaluated.
In two separate groups of animals compound [1140] (6-chloro-N-(3-(2-(dimethylamino)ethyl)-1H-indol-5-yl)imidazo[2,1-b]thiazole-5-sulfonamide) and donepezil HCl (or vehicle) were administered on four separate occasions, at seven day intervals. The semi-randomised design for drug administration ensures that for each group, each animal receives one of the four treatment combinations once during the study: compound [1140] and donepezil HCl, compound [1140] and vehicle, donepezil HCl and vehicle, vehicle and vehicle. […] Drug pre-treatment occurred 20 min prior to the first NOD trial to ensure optimal drug plasma levels during acquisition and consolidation phases.
To maximise the opportunity to see a synergistic effect, the animals received one dose of donepezil HCl i.p. (0.05 mg/kg for group 1 and 0.1 mg/kg for group 2) in combination with the selected dose of compound [1140] (1 mg/kg) or the vehicle (saline containing 0.5 methylcellulose, 2 ml/kg).
The exact experimental protocol is outlined in detail in:
M. V. King et al, 5-HT6 receptor antagonist reverse delay-dependent deficits in novel object discrimination by enhancing consolidation—an effect sensitive to NMDA receptor antagonism, Neuropharmacology 2004, 47, 195-204 and Woolley et al. Reversal of cholinergic-induced deficit in a rodent model of recognition memory by the selective 5-HT6 receptor antagonist, Ro 04-6790; Psychopharmacology 2003, 170, 358-367.
The behavioural assessment of cognitive effects of compounds with 5-HT6 receptor affinity with the novel object discrimination (NOD) test was carried out as described above.
The results are depicted in FIG. 1. […]

SMILES | effect in the NOD test | potentiation of the action of compound [1140] in the NOD test (donepezil given with compound [1140])
CN(C)CCc1c[nH]c2ccc(NS(=O)(=O)c3c(Cl)nc4sccn34)cc12 [compound [1140], 6-chloro-N-(3-(2-(dimethylamino)ethyl)-1H-indol-5-yl)imidazo[2,1-b]thiazole-5-sulfonamide] | does not have any effect | –
COc1cc2c(cc1OC)C(=O)C(CC1CCN(Cc3ccccc3)CC1)C2 (stereo not drawn) [donepezil hydrochloride] | does not have any effect | potentiates the action
